# Target: T1, olfactory receptor OR9Q2 (Homo sapiens, UniProt Q8NGE9)
# T1 construct: 20 N-terminal amino acid residues of bovine rhodopsin (Rho tag); expressed in transfected cells; host or cells: HEK293T
# T1 sequence (Q8NGE9 1-314): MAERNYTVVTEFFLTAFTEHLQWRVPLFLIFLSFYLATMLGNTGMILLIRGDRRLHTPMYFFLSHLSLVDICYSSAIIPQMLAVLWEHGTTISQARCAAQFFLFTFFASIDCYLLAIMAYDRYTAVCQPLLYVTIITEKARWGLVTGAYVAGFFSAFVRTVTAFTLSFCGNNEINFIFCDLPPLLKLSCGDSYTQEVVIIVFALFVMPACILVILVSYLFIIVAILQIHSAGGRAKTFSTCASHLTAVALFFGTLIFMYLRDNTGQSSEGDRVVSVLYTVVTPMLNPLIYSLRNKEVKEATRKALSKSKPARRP
# Assay: OR9Q2 response inhibitory effect for p-cresol, luciferase reporter gene assay
# Type: cell-based
# Details: p-cresol 100 µM mixed with various concentrations of compound; cells expressing OR9Q2; ratio of Fold Increase value (FIGS. 1 to 11)
structure (smiles),measurement,value
"O=C1CCCCCCCCCCCCCCO1 [Pentalide, pentalide]",effect of suppressing the response of OR9Q2 to p-cresol,suppressing the response of OR9Q2 to p-cresol in a concentration-dependent manner
